Converted amounts (≈) assume the structure as drawn. Read-outs that look alike come from different tables or passages of the source.
How the values were obtained:
[1] = Solid stability experiment (related substances by HPLC); assay type: physicochemical
Protocol: The compound physical and chemical stability at high temperature of 60°C, high humidity of 92.5% RH and both high temperature of 50°C and high humidity of 75% RH of the free base crystal form I and the free base crystal form II were investigated to provide a basis for the storage of the compounds.
About 2 mg of the free base crystal form I and the free base crystal form II were taken respectively, and changes of related substances in the crystal forms at high temperature of 60°C, high humidity of 92.5% RH, and both high temperature of 50°C and high humidity of 75%RH for 7 days and 14 days were investigated. The changes of related substances were calculated by HPLC and the chromatographic peak area normalization method.

[2] = Hygroscopicity experiment; assay type: physicochemical; conditions: for weight gain after moisture absorption: at 80%RH
Protocol: The hygroscopicity of the crystal form I and the crystal form II of compound 9 were investigated under different relative humidity to provide a basis for the storage of the compounds.
The crystal form I and the crystal form II of compound 9 were placed in saturated water vapor at different relative humidities to allow the compound to reach a dynamic equilibrium with the water vapor, and the percentage of weight gain after moisture absorption of the compound after equilibrium was calculated.

[3] = PK studies in animals of the free base crystal forms; assay type: in vivo; conditions: SD rats, plasma; for MRT inf: read-out: MRT 0-∞
Protocol: The pharmacokinetic of the free base crystal form after a single intravenous administration was studied, and the bioavailability of the free base crystal form I and the free base crystal form II after oral administration were calculated.
The free base crystal form I was suspended with 0.5% CMCC-Na aqueous solution, and the free base crystal form […] aqueous solution. After uniformity, the suspensions were administered intragastrically to rats in triplicate at a dosage of 5 mg/kg (30 mg/kg for suspension) for the free base crystal form I and a dosage of 30 mg/kg (suspension) for the free base crystal form II. The free base crystal form I was dissolved with 20% HP-β-CD aqueous solution to obtain a clear solution, and the clear solution was filtered through a filter membrane. The filtered solution was administered via injection to rats in triplicate.

[4] = Solubility experiments in different media (thermodynamic solubility); assay type: physicochemical; conditions: thermodynamic from solid
Excerpt: The solubility of the free base crystal form I and the free base crystal form II in media such as pH 1.0-8.0 USP buffer, artificial simulated gastric fluid (FaSSGF), fasted-state artificial simulated intestinal fluid (FaSSIF), fed-state artificial simulated intestinal fluid (FeSSIF) and pure water was compared to provide a basis for the evaluation of drugability.

[5] = Room temperature, 92.5%RH, 7 days
[6] = Room temperature, 92.5%RH, 14 days
[7] = Sprague-Dawley (SD), rat, po, 30 mg/kg, 30MPK, 0.5%HPMC suspension
[8] = Sprague-Dawley (SD), rat, 2 mg/kg, IV, 2MPK, 20%HP-B-CD solution
[9] = Sprague-Dawley (SD), rat, iv, 2 mg/kg, 2MPK, 20%HP-B-CD solution
[10] = Sprague-Dawley (SD), rat, po, 5 mg/kg, 5MPK, 0.5%CMC-Na
[11] = Sprague-Dawley (SD), rat, po, 30 mg/kg, 30MPK, 0.5%CMC-Na suspension

CC(C)(O)c1nc(N2C[C@H]3CN(C(=O)c4c(F)cccc4-c4ncccn4)C[C@H]3C2)ncc1F [free base crystal form II, ((3aR,6aS)-5-(5-fluoro-4-(2-hydroxyprop-2-yl)pyrimidin-2-yl)hexahydropyrrolo [3,4-c]pyrrol-2(1H)-yl)(2-fluoro-6-(pyrimidin-2-yl)phenyl)methanone]
% Increase in total impurity ([1]; 50°C, 75%RH, 7 days): <0.10%
% Maximum increase in single impurity ([1]; 50°C, 75%RH, 7 days): <0.10%
% Increase in total impurity ([1]; 50°C, 75%RH, 14 days): <0.10%
% Maximum increase in single impurity ([1]; 50°C, 75%RH, 14 days): <0.10%
% Increase in total impurity ([1]; 60°C, 7 days): <0.10%
% Maximum increase in single impurity ([1]; 60°C, 7 days): <0.10%
% Increase in total impurity ([1]; 60°C, 14 days): <0.10%
% Maximum increase in single impurity ([1]; 60°C, 14 days): <0.10%
% Increase in total impurity [1, 5]: <0.10%
% Maximum increase in single impurity [1, 5]: <0.10%
% Increase in total impurity [1, 6]: <0.11%
% Maximum increase in single impurity [1, 6]: <0.10%
weight gain after moisture absorption [2]: about 0.2053%
Tmax ([3]; Sprague-Dawley (SD), rat, 30 mg/kg, PO, 30MPK, 0.5%HPMC suspension, read-out: tmax): 2 h
AUC(0-inf) [3, 7]: 13600 ng·h/mL
AUC(0-t) [3, 7]: 11800 ng·h/mL
Cmax [3, 7]: 2520 ng/mL
bioavailability [3, 7]: 39.6%
half-life [3, 7]: 2.4 h
MRT inf ([3]; Sprague-Dawley (SD), rat, po, 30 mg/kg, PO, 30MPK, 0.5%HPMC suspension): 4.3 h
solubility at 2 h ([4]; FaSSCoF, 37 °C, fassgf or other biorelevant, FaSSCoF, read-out: Solubility of free base crystal form II): 51 µg/mL (≈ 109 µM)
solubility at 2 h ([4]; FaSSGF (artificial simulated gastric fluid), 37 °C, fassgf or other biorelevant, FaSSGF, read-out: Solubility of free base crystal form II): 131 µg/mL (≈ 281 µM)
solubility at 2 h ([4]; FaSSIF, 37 °C, fassif, FaSSIF, read-out: Solubility of free base crystal form II): 60 µg/mL (≈ 129 µM)
solubility at 2 h ([4]; FeSSCoF, 37 °C, fassgf or other biorelevant, FeSSCoF, read-out: Solubility of free base crystal form II): 63 µg/mL (≈ 135 µM)
solubility at 2 h ([4]; FeSSIF, 37 °C, fessif, FeSSIF, read-out: Solubility of free base crystal form II): 100 µg/mL (≈ 214 µM)
solubility at 2 h ([4]; USP buffer pH 1.0, 37 °C, pH 1, simulated gastric fluid, pH 1.0, read-out: Solubility of free base crystal form II): 599 µg/mL (≈ 1280 µM)
solubility at 2 h ([4]; USP buffer pH 2.0, 37 °C, pH 2, simulated gastric fluid, pH 2.0, read-out: Solubility of free base crystal form II): 89 µg/mL (≈ 191 µM)
solubility at 2 h ([4]; USP buffer pH 3.0, 37 °C, pH 3, aqueous buffer, pH 3.0, read-out: Solubility of free base crystal form II): 55 µg/mL (≈ 118 µM)
solubility at 2 h ([4]; USP buffer pH 4.5, 37 °C, pH 4.5, aqueous buffer, pH 4.5, read-out: Solubility of free base crystal form II): 53 µg/mL (≈ 114 µM)
solubility at 2 h ([4]; USP buffer pH 6.8, 37 °C, pH 6.8, aqueous buffer, pH 6.8, read-out: Solubility of free base crystal form II): 49 µg/mL (≈ 105 µM)
solubility at 2 h ([4]; USP buffer, 37 °C, pH 4, aqueous buffer, pH 4.0, read-out: Solubility of free base crystal form II): 51 µg/mL (≈ 109 µM)
solubility at 2 h ([4]; USP buffer, 37 °C, pH 5, aqueous buffer, pH 5.0, read-out: Solubility of free base crystal form II): 50 µg/mL (≈ 107 µM)
solubility at 2 h ([4]; USP buffer, 37 °C, pH 6, aqueous buffer, pH 6.0, read-out: Solubility of free base crystal form II): 50 µg/mL (≈ 107 µM)
solubility at 2 h ([4]; USP buffer, 37 °C, pH 7, aqueous buffer, pH 7.0, read-out: Solubility of free base crystal form II): 47 µg/mL (≈ 101 µM)
solubility at 2 h ([4]; USP buffer, 37 °C, pH 8, aqueous buffer, pH 8.0, read-out: Solubility of free base crystal form II): 47 µg/mL (≈ 101 µM)
solubility at 2 h ([4]; water, 37 °C, water, H2O, read-out: Solubility of free base crystal form II): 55 µg/mL (≈ 118 µM)

CC(C)(O)c1nc(N2C[C@H]3CN(C(=O)c4c(F)cccc4-c4ncccn4)C[C@H]3C2)ncc1F [free base crystal form I, ((3aR,6aS)-5-(5-fluoro-4-(2-hydroxyprop-2-yl)pyrimidin-2-yl)hexahydropyrrolo [3,4-c]pyrrol-2(1H)-yl)(2-fluoro-6-(pyrimidin-2-yl)phenyl)methanone]
% Increase in total impurity ([1]; 50°C, 75%RH, 7 days): <0.1%
% Maximum increase in single impurity ([1]; 50°C, 75%RH, 7 days): <0.1%
% Increase in total impurity ([1]; 50°C, 75%RH, 14 days): <0.1%
% Maximum increase in single impurity ([1]; 50°C, 75%RH, 14 days): <0.1%
% Increase in total impurity ([1]; 60°C, 7 days): <0.1%
% Maximum increase in single impurity ([1]; 60°C, 7 days): <0.1%
% Increase in total impurity ([1]; 60°C, 14 days): <0.1%
% Maximum increase in single impurity ([1]; 60°C, 14 days): <0.1%
% Increase in total impurity [1, 5]: <0.1%
% Maximum increase in single impurity [1, 5]: <0.1%
% Increase in total impurity [1, 6]: <0.1%
% Maximum increase in single impurity [1, 6]: <0.1%
change in the XRPD pattern (crystal form transformation) ([2]; after 2 cycles of moisture absorption and desorption at 0%-95% relative humidity): no change in the XRPD pattern
weight gain after moisture absorption [2]: about 0.3263%
Tmax ([3]; PO, 30MPK, 0.5%CMC-Na suspension): 2.0 h
C0 [3, 8]: 2910 ng/mL
clearance [3, 8]: 15 mL/min/kg
Vd ([3]; Sprague-Dawley (SD), rat, 2 mg/kg, IV, 2MPK, 20%HP-B-CD solution, read-out: Vss): 0.8 L/kg
Tmax ([3]; Sprague-Dawley (SD), rat, 5 mg/kg, PO, 5MPK, 0.5%CMC-Na, read-out: tmax): 0.5 h
AUC(0-inf) [3, 9]: 2280 ng·h/mL
AUC(0-t) [3, 9]: 2280 ng·h/mL
half-life [3, 9]: 0.9 h
MRT inf ([3]; Sprague-Dawley (SD), rat, iv, 2 mg/kg, IV, 2MPK, 20%HP-B-CD solution): 0.9 h
AUC(0-inf) [3, 10]: 2410 ng·h/mL
AUC(0-t) [3, 10]: 2390 ng·h/mL
Cmax [3, 10]: 787 ng/mL
bioavailability [3, 10]: 7%
half-life [3, 10]: 1.2 h
MRT inf ([3]; Sprague-Dawley (SD), rat, po, 5 mg/kg, PO, 5MPK, 0.5%CMC-Na): 2.2 h
AUC(0-inf) [3, 11]: 31000 ng·h/mL
AUC(0-t) [3, 11]: 28400 ng·h/mL
Cmax [3, 11]: 6010 ng/mL
bioavailability [3, 11]: 90.4%
half-life [3, 11]: 1.9 h
MRT inf ([3]; Sprague-Dawley (SD), rat, po, 30 mg/kg, PO, 30MPK, 0.5%CMC-Na suspension): 3.8 h
solubility at 2 h ([4]; FaSSCoF, 37 °C, fassgf or other biorelevant, FaSSCoF, read-out: Solubility of free base crystal form I): 118 µg/mL (≈ 253 µM)
solubility at 2 h ([4]; FaSSGF (artificial simulated gastric fluid), 37 °C, fassgf or other biorelevant, FaSSGF, read-out: Solubility of free base crystal form I): 269 µg/mL (≈ 577 µM)
solubility at 2 h ([4]; FaSSIF, 37 °C, fassif, FaSSIF, read-out: Solubility of free base crystal form I): 247 µg/mL (≈ 529 µM)
solubility at 2 h ([4]; FeSSCoF, 37 °C, fassgf or other biorelevant, FeSSCoF, read-out: Solubility of free base crystal form I): 182 µg/mL (≈ 390 µM)
solubility at 2 h ([4]; FeSSIF, 37 °C, fessif, FeSSIF, read-out: Solubility of free base crystal form I): 311 µg/mL (≈ 667 µM)
solubility at 2 h ([4]; USP buffer pH 1.0, 37 °C, pH 1, simulated gastric fluid, pH 1.0, read-out: Solubility of free base crystal form I): 799 µg/mL (≈ 1710 µM)
solubility at 2 h ([4]; USP buffer pH 2.0, 37 °C, pH 2, simulated gastric fluid, pH 2.0, read-out: Solubility of free base crystal form I): 141 µg/mL (≈ 302 µM)
solubility at 2 h ([4]; USP buffer pH 3.0, 37 °C, pH 3, aqueous buffer, pH 3.0, read-out: Solubility of free base crystal form I): 87 µg/mL (≈ 186 µM)
solubility at 2 h ([4]; USP buffer pH 4.5, 37 °C, pH 4.5, aqueous buffer, pH 4.5, read-out: Solubility of free base crystal form I): 80 µg/mL (≈ 171 µM)
solubility at 2 h ([4]; USP buffer pH 6.8, 37 °C, pH 6.8, aqueous buffer, pH 6.8, read-out: Solubility of free base crystal form I): 81 µg/mL (≈ 174 µM)
solubility at 2 h ([4]; USP buffer, 37 °C, pH 4, aqueous buffer, pH 4.0, read-out: Solubility of free base crystal form I): 73 µg/mL (≈ 156 µM)
solubility at 2 h ([4]; USP buffer, 37 °C, pH 5, aqueous buffer, pH 5.0, read-out: Solubility of free base crystal form I): 88 µg/mL (≈ 189 µM)
solubility at 2 h ([4]; USP buffer, 37 °C, pH 6, aqueous buffer, pH 6.0, read-out: Solubility of free base crystal form I): 70 µg/mL (≈ 150 µM)
solubility at 2 h ([4]; USP buffer, 37 °C, pH 7, aqueous buffer, pH 7.0, read-out: Solubility of free base crystal form I): 75 µg/mL (≈ 161 µM)
solubility at 2 h ([4]; USP buffer, 37 °C, pH 8, aqueous buffer, pH 8.0, read-out: Solubility of free base crystal form I): 58 µg/mL (≈ 124 µM)
solubility at 2 h ([4]; water, 37 °C, water, H2O, read-out: Solubility of free base crystal form I): 91 µg/mL (≈ 195 µM)

Reference: EP4588921A1, “FREE BASE CRYSTAL FORM OF POLYCYCLIC COMPOUND OF NITROGEN-CONTAINING HETEROCYCLE, AND PREPARATION METHOD THEREFOR” (Jiangsu Hansoh Pharmaceutical Group Co., Ltd., priority 2022, dated 2024)
